Laboratory results: ChEMBL document CHEMBL5634076, “Optimization of pyridylpiperazine-based inhibitors of the Escherichia coli AcrAB-TolC efflux pump” (Eur J Med Chem, 2023)
Values after ≈ are worked out from the molar mass of the structure shown.

Experiments:
[1] = biological target: T1, Multidrug efflux pump subunit AcrB (Escherichia coli (strain K12)) (UniProt P31224); test: Inhibition of AcrB in Escherichia coli BW25113 assessed as potentiation of pyridomycin-induced antibacterial activity incubated for 20 hrs by resazurin microtitre assay
T1 sequence (whole entry): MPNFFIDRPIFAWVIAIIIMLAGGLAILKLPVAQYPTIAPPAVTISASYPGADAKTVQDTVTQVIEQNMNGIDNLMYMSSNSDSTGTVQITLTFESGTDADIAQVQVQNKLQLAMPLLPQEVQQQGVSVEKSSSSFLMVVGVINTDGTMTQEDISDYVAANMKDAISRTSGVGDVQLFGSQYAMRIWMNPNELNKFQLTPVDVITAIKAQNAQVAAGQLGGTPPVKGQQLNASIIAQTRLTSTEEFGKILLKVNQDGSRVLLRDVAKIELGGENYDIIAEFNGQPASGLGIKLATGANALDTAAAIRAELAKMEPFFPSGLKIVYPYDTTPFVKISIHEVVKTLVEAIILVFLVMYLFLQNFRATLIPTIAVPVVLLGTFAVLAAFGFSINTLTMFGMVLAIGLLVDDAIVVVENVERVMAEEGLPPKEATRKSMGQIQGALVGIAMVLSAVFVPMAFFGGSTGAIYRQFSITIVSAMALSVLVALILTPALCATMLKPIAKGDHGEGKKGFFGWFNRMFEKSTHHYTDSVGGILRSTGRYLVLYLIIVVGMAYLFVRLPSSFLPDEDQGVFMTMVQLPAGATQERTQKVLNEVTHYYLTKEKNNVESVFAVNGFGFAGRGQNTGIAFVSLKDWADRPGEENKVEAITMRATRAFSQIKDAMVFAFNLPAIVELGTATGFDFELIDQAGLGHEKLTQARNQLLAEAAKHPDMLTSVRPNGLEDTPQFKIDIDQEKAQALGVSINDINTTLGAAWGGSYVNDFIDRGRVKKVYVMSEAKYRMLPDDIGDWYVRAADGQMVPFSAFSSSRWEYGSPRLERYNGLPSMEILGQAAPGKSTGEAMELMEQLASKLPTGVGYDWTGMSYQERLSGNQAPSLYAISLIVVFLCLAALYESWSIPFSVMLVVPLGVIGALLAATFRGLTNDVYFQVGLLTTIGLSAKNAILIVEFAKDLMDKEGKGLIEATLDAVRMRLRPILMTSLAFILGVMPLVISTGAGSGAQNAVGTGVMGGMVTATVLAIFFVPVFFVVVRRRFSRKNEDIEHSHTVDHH

Escherichia coli [2] = test: Antibacterial activity against Escherichia coli BW25113 assessed as reduction in bacterial growth incubated for 20 hrs by resazurin microtitre assay; type: functional
Escherichia coli [3] = test: Selectivity ratio of EC90 for inhibition of AcrB Glu947Gln mutant in Escherichia coli BW25113 to inhibition of AcrB in Escherichia coli BW25113 incubated for 20 hrs by resazurin microtitre assay
Escherichia coli [4] = test: Selectivity ratio of EC90 for inhibition of AcrB Asp951Asn mutant in Escherichia coli BW25113 to inhibition of AcrB in Escherichia coli BW25113 incubated for 20 hrs by resazurin microtitre assay
Escherichia coli [5] = test: Inhibition of AcrB Asp951Asn mutant in Escherichia coli BW25113 assessed as potentiation of pyridomycin-induced antibacterial activity incubated for 20 hrs by resazurin microtitre assay
Escherichia coli [6] = test: Inhibition of AcrB Glu947Gln mutant in Escherichia coli BW25113 assessed as potentiation of pyridomycin-induced antibacterial activity incubated for 20 hrs by resazurin microtitre assay
[7] = Stability in CD-1 mouse liver microsomes assessed as half life at 1 uM measured up to 40 mins by LC-MS/MS analysis; type: ADME, Microsome
[8] = biological target: T1, Multidrug efflux pump subunit AcrB (Escherichia coli (strain K12)); test: Inhibition of AcrB in Escherichia coli BW25113 assessed as potentiation of pyridomycin-induced antibacterial activity incubated for 5 hrs by resazurin reduction assay
[9] = Solubility of compound in PBS at pH 7.4 incubated for 24 hrs by LC-MS/MS analysis; type: physicochemical
[10] = Stability in mouse plasma assessed as half life at 10 uM measured up to 360 mins by LC-MS/MS analysis; type: ADME, cell-free
[11] = Stability in CD-1 mouse liver microsomes assessed as intrinsic clearance at 1 uM measured up to 40 mins by LC-MS/MS analysis; type: ADME, Microsome; conditions: read-out: CLH
[12] = biological target: T1, Multidrug efflux pump subunit AcrB (Escherichia coli (strain K12)); test: Potency index, ratio of BDM73185 EC90 to test compound EC90 for inhibition of AcrAB-TolC in Escherichia coli BW25113
Escherichia coli [13] = test: Antibacterial activity against Escherichia coli BW25113 assessed as reduction in bacterial growth incubated up to 18 hrs by resazurin microtitre assay; type: functional

Row | Structure (SMILES) | EC90 [1] [µM] | MIC (Escherichia coli [2]) [µM] | further results
1 | NC1CCN(c2ncc(C(F)(F)F)cc2Cl)CC1 | 500 | > 250 | –
2 | NCc1cccc(OCc2cnc(N3CCNCC3)c(Cl)c2)c1 | 23 | > 250 | Ratio (Escherichia coli [3]): > 11; Ratio (Escherichia coli [4]): > 11; EC90 (Escherichia coli [5]): > 250 µM; EC90 (Escherichia coli [6]): > 250 µM
3 | C[C@@H]1CN(c2ncc(C(F)(F)F)cc2Cl)C[C@H](C)N1 | > 500 | > 250 | –
4 | O=C(O)c1cn(C2CC2)c2cc(N3CCNCC3)c(F)cc2c1=O [CIPROFLOXACIN] | – | – | MIC95 (Escherichia coli [2]): 0.01 µg/mL (≈ 0.0302 µM)
5 | O=C(OCc1ccccc1)c1cnc(N2CCNCC2)c(Cl)c1 | 156 | > 250 | –
6 | Clc1cc(I)cnc1N1CCNCC1 | – | > 250 | half-life at 1 µM [7]: 9 min; EC90 [8]: 12 µM; solubility at 24 h [9]: > 200 µM; half-life at 10 µM [10]: > 360 min; microsomal CLint at 1 µM [11]: 241 µL/min/mg
7 | CC(=O)NC[C@H]1CN(c2ccc(N3CCOCC3)c(F)c2)C(=O)O1 [LINEZOLID] | – | – | MIC95 (Escherichia coli [2]): > 128 µg/mL
8 | CO[C@@H]1[C@@H](OC(N)=O)[C@@H](O)[C@H](Oc2ccc3c(O)c(NC(=O)c4ccc(O)c(CC=C(C)C)c4)c(=O)oc3c2C)OC1(C)C [NOVOBIOCIN] | – | – | MIC95 (Escherichia coli [2]): 80 µg/mL (≈ 131 µM)
9 | Cc1onc(-c2ccccc2)c1C(=O)N[C@@H]1C(=O)N2[C@@H]1SC(C)(C)[C@@H]2C(=O)O [OXACILLIN] | – | – | MIC95 (Escherichia coli [2]): > 128 µg/mL
10 | CC(C)(C)OC(=O)N1CCN(c2ncc(N)cc2Cl)CC1 | – | > 250 | –
11 | Cc1nc(-c2cnc(N3CCNCC3)c(Cl)c2)cs1 | 187 | > 250 | –
12 | CNC(=O)c1cnc(N2CCNCC2)c(Cl)c1 | > 250 | > 250 | –
13 | COC(=O)c1cnc(N2CCNCC2)c(Cl)c1 | 20 | > 250 | Ratio [12]: 3
14 | O=C(CBr)c1cnc(N2CCN(C(=O)OCC(Cl)(Cl)Cl)CC2)c(Cl)c1 | – | > 250 | –
15 | NCCc1ccc(OC(=O)c2cnc(N3CCNCC3)c(Cl)c2)cc1 | 3 | > 250 | Ratio (Escherichia coli [3]): 3; Ratio (Escherichia coli [4]): 8; EC90 (Escherichia coli [5]): 23 µM; EC90 (Escherichia coli [6]): 8 µM
16 | NCCc1ccc(C(=O)Nc2cnc(N3CCNCC3)c(Cl)c2)cc1 | 47 | > 250 | –
17 | NCCOC(=O)c1cnc(N2CCNCC2)c(Cl)c1 | > 250 | > 250 | –
18 | OCc1cc(C(F)(F)F)cnc1N1CCNCC1 | > 500 | > 250 | –
19 | NCCc1ccc(NC(=O)c2cnc(N3CCNCC3)c(Cl)c2)cc1 | 187 | > 250 | –
20 | Cc1nc(-c2cnc(N3CCNCC3)c(Cl)c2)co1 | > 250 | > 250 | –
21 | O=C(Oc1ccccc1)c1cnc(N2CCNCC2)c(Cl)c1 | 23 | > 250 | –
22 | CC(=O)Nc1cnc(N2CCNCC2)c(Cl)c1 | 187 | > 250 | –
23 | FC(F)(F)c1cnc(N2CCCNCC2)c(Cl)c1 | > 500 | > 250 | –
24 | CCOC(=O)c1cnc(N2CCNCC2)c(Cl)c1 | 12 | > 250 | Ratio [12]: 3
25 | FC(F)(F)c1cnc(N2CCNCC2)c(Br)c1 | 16 | > 250 | –

Row | Structure (SMILES) | EC90 [1] [µM] | MIC (Escherichia coli [2]) [µM] | further results
26 | Cc1nc(-c2cnc(N3CCNCC3)c(Cl)c2)no1 | 78 | > 250 | –
27 | NCc1cccc(COc2cnc(N3CCNCC3)c(Cl)c2)c1 | 10 | > 250 | Ratio (Escherichia coli [3]): > 25; Ratio (Escherichia coli [4]): 25; EC90 (Escherichia coli [5]): 250 µM; EC90 (Escherichia coli [6]): > 250 µM
28 | NCc1cccc(NC(=O)c2cnc(N3CCNCC3)c(Cl)c2)c1 | 156 | > 250 | –
29 | O=C(Oc1cccc(CO)c1)c1cnc(N2CCNCC2)c(Cl)c1 | 26 | > 250 | Ratio (Escherichia coli [3]): 2.4; Ratio (Escherichia coli [4]): 2.4; EC90 (Escherichia coli [5]): 62 µM; EC90 (Escherichia coli [6]): 62 µM
30 | O=C(N[C@H](CO)[C@H](O)c1ccc([N+](=O)[O-])cc1)C(Cl)Cl [CHLORAMPHENICOL] | – | – | MIC95 (Escherichia coli [2]): 8 µg/mL (≈ 24.8 µM)
31 | OCc1cnc(N2CCNCC2)c(Cl)c1 | > 250 | > 250 | –
32 | FC(F)(F)c1cc(I)cnc1N1CCNCC1 | 94 | > 250 | –
33 | CC(C)(C)OC(=O)N1CCN(c2ncc(/C(N)=N/O)cc2Cl)CC1 | – | > 250 | –
34 | NCc1nc(-c2cnc(N3CCNCC3)c(Cl)c2)no1 | 81 | > 250 | Ratio (Escherichia coli [3]): 3; Ratio (Escherichia coli [4]): 3; EC90 (Escherichia coli [5]): 250 µM; EC90 (Escherichia coli [6]): 250 µM
35 | FC(F)(F)c1cnc(C2=CCNCC2)c(Cl)c1 | > 250 | > 250 | –
36 | NCCNc1ncc(C(F)(F)F)cc1Cl | > 500 | > 250 | –
37 | C[C@@H]1CNCCN1c1ncc(C(F)(F)F)cc1Cl | > 500 | > 250 | –
38 | O=C(OCCCc1ccccc1)c1cnc(N2CCNCC2)c(Cl)c1 | 250 | 250 (≈ 90 µg/mL) | –
39 | O=C(OCCc1ccccc1)c1cnc(N2CCNCC2)c(Cl)c1 | 62 | > 250 | –
40 | CC(=O)O[C@H]1C[C@@]2(C)[C@@H](C[C@@H](O)[C@H]3[C@@]4(C)CC[C@@H](O)[C@@H](C)[C@@H]4CC[C@@]32C)/C1=C(\CCC=C(C)C)C(=O)O [FUSIDIC ACID] | – | – | MIC95 (Escherichia coli [2]): > 128 µg/mL
41 | NCCCc1nc(-c2cnc(N3CCNCC3)c(Cl)c2)no1 | 21 | > 250 | Ratio (Escherichia coli [3]): > 12; Ratio (Escherichia coli [4]): > 12; EC90 (Escherichia coli [5]): > 250 µM; EC90 (Escherichia coli [6]): > 250 µM
42 | O=C1CN(c2ncc(C(F)(F)F)cc2Cl)CCN1 | > 500 | > 250 | –
43 | FC(F)(F)c1ccc(N2CCNCC2)nc1 | > 500 | > 250 | –
44 | O=C(O)c1cnc(N2CCNCC2)c(Cl)c1 | – | > 250 | –
45 | CC[C@H]1OC(=O)[C@H](C)[C@@H](O[C@H]2C[C@@](C)(OC)[C@@H](O)[C@H](C)O2)[C@H](C)[C@@H](O[C@@H]2O[C@H](C)C[C@H](N(C)C)[C@H]2O)[C@](C)(O)C[C@@H](C)C(=O)[C@H](C)[C@@H](O)[C@]1(C)O [ERYTHROMYCIN] | – | – | MIC95 (Escherichia coli [13]): 128 µg/mL (≈ 174 µM)
46 | CS(=O)(=O)Nc1cnc(N2CCNCC2)c(Cl)c1 | > 250 | > 250 | –
47 | C[C@H]1CNCCN1c1ncc(C(F)(F)F)cc1Cl | > 500 | > 250 | –
48 | CCN1CCN(C(=O)N[C@@H](C(=O)N[C@@H]2C(=O)N3[C@@H]2SC(C)(C)[C@@H]3C(=O)O)c2ccccc2)C(=O)C1=O [PIPERACILLIN] | – | – | MIC95 (Escherichia coli [13]): 4 µg/mL (≈ 7.73 µM)
49 | Cc1nnc(-c2cnc(N3CCNCC3)c(Cl)c2)o1 | 187 | > 250 | –
